Source: patent publication US20170158745A1, “IDR PEPTIDE COMPOSITIONS AND USE THEREOF FOR TREATMENT OF TH2-DYSREGULATED INFLAMMATORY CONDITIONS” (University of Manitoba, priority 2013, published 2017)
Residues, ends and D or L forms follow the SMILES beside them.

How the values were obtained:
Assay type in all cases: in vivo, mouse (Balb/c)
Conditions in all cases: BALF, serum or lung tissue extract
IL-4 = assay: Induction of IL-4 by the peptide itself
IL-5 = assay: Induction of IL-5 by the peptide itself
IL-1β = assay: Induction of IL-1β by the peptide itself
TNFα = assay: Induction of TNFα by the peptide itself

induction of IL-4 (IL-4): did not induce
induction of IL-5 (IL-5): did not induce
induction of IL-1β (IL-1β): did not induce
induction of TNFα (TNFα): did not induce
SMILES: CC[C@H](C)[C@H](NC(=O)[C@H](CCCNC(=N)N)NC(=O)[C@H](Cc1c[nH]c2ccccc12)NC(=O)[C@@H](NC(=O)[C@@H](NC(=O)[C@H](CC(C)C)NC(=O)[C@H](Cc1c[nH]c2ccccc12)NC(=O)[C@H](CCCNC(=N)N)NC(=O)[C@H](CCC(N)=O)NC(=O)[C@@H](N)C(C)C)[C@@H](C)CC)C(C)C)C(=O)N[C@@H](CCCNC(=N)N)C(=O)N[C@@H](CCCCN)C(N)=O [IDR 1002, VQRWLIVWRIRK-NH2] (H-VQRWLIVWRIRK-NH2)
